Biological target: T1, Human KLK1 (Homo sapiens, UniProt P06870)
T1 construct: purchased Callbiochem (Calbiochem)
Experiment: Determination of the IC50 for KLK1 (fluorogenic substrate H-DVal-Leu-Arg-AFC)
Type: biochemical
Settings: 37° C.
Procedure, shortened: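 IC50 values reflect residual human KLK1 activity, read as initial rate from optical absorbance change at 410 nm. Incubations ran at 37° C with H-DVal-Leu-Arg-AFC as substrate across a compound concentration series.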

T1 sequence (P06870 25-262): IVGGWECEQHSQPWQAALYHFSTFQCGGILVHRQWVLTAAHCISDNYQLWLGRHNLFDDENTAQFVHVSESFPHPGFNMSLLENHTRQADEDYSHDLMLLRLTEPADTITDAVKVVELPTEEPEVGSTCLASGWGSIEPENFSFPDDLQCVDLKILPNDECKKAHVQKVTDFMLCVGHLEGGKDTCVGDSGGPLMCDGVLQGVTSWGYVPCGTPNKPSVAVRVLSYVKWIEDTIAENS

IC50 | Compound
17.1 nM | CN1CCC[C@@H]1C(=O)N[C@@H](Cc1cccc(F)c1)C(=O)NCc1ccc(N)nc1 [Example 99, (R)-1-Methyl-pyrrolidine-2-carboxylic acid [(S)-1-[(6-amino-pyridin-3-ylmethyl)-carbamoyl]-2-(3-fluoro-phenyl)-ethyl]-amide]
85.8 nM | COc1ccc(C[C@H](NC(=O)[C@H]2CCCN2C)C(=O)NCc2ccc(N)nc2)cc1 [Example 100, (R)-1-Methyl-pyrrolidine-2-carboxylic acid [(S)-1-[(6-amino-pyridin-3-ylmethyl)-carbamoyl]-2-(4-methoxy-phenyl)-ethyl]-amide]
24.1 nM | CN1CCC[C@@H]1C(=O)N[C@@H](Cc1ccccc1)C(=O)NCc1ccc(N)nc1 [Example 101, (R)-1-Methyl-pyrrolidine-2-carboxylic acid {(S)-1-[(6-amino-pyridin-3-ylmethyl)-carbamoyl]-2-phenyl-ethyl}-amide]
258 nM | CN1CCC[C@@H]1C(=O)N[C@@H](Cc1ccc(C(C)(C)C)cc1)C(=O)NCc1ccc(N)nc1 [Example 102, (R)-1-Methyl-pyrrolidine-2-carboxylic acid [(S)-1-[(6-amino-pyridin-3-ylmethyl)-carbamoyl]-2-(4-tert-butyl-phenyl)-ethyl]-amide]
5.4 nM | CN1CCC[C@@H]1C(=O)N[C@@H](Cc1cccc(Cl)c1)C(=O)NCc1ccc(N)nc1 [Example 103, (R)-1-Methyl-pyrrolidine-2-carboxylic acid [(S)-1-[(6-amino-pyridin-3-ylmethyl)-carbamoyl]-2-(3-chloro-phenyl)-ethyl]-amide]
24.4 nM | Cc1ccccc1C[C@H](NC(=O)[C@H]1CCCN1C)C(=O)NCc1ccc(N)nc1 [Example 104, (R)-1-Methyl-pyrrolidine-2-carboxylic acid {(S)-1-[(6-amino-pyridin-3-ylmethyl)-carbamoyl]-2-o-tolyl-ethyl}-amide]
3.8 nM | Cc1cccc(C[C@H](NC(=O)[C@H]2CCCN2C)C(=O)NCc2ccc(N)nc2)c1 [Example 105, (R)-1-Methyl-pyrrolidine-2-carboxylic acid {(S)-1-[(6-amino-pyridin-3-ylmethyl)-carbamoyl]-2-m-tolyl-ethyl}-amide]
3.9 nM | Cc1ccc(C[C@H](NC(=O)[C@H]2CCCN2C)C(=O)NCc2ccc(N)nc2)cc1 [Example 106, (R)-1-Methyl-pyrrolidine-2-carboxylic acid {(S)-1-[(6-amino-pyridin-3-ylmethyl)-carbamoyl]-2-p-tolyl-ethyl}-amide]
71.2 nM | COc1cccc(C[C@H](NC(=O)[C@H]2CCCN2C)C(=O)NCc2ccc(N)nc2)c1 [Example 107, (R)-1-Methyl-pyrrolidine-2-carboxylic acid [(S)-1-[(6-amino-pyridin-3-ylmethyl)-carbamoyl]-2-(3-methoxy-phenyl)-ethyl]-amide]
34 nM | CN1CCC[C@@H]1C(=O)N[C@@H](Cc1ccccc1F)C(=O)NCc1ccc(N)nc1 [Example 108, (R)-1-Methyl-pyrrolidine-2-carboxylic acid [(S)-1-[(6-amino-pyridin-3-ylmethyl)-carbamoyl]-2-(2-fluoro-phenyl)-ethyl]-amide]
21.7 nM | CN1CCC[C@@H]1C(=O)N[C@@H](Cc1ccccc1Cl)C(=O)NCc1ccc(N)nc1 [Example 109, (R)-1-Methyl-pyrrolidine-2-carboxylic acid [(S)-1-[(6-amino-pyridin-3-ylmethyl)-carbamoyl]-2-(2-chloro-phenyl)-ethyl]-amide]
4 nM | CN1CCC[C@@H]1C(=O)N[C@@H](Cc1ccc(Cl)cc1Cl)C(=O)NCc1ccc(N)nc1 [Example 110, (R)-1-Methyl-pyrrolidine-2-carboxylic acid [(S)-1-[(6-amino-pyridin-3-ylmethyl)-carbamoyl]-2-(2,4-dichloro-phenyl)-ethyl]-amide]
15 nM | CN1CCC[C@@H]1C(=O)N[C@@H](Cc1ccccc1C(F)(F)F)C(=O)NCc1ccc(N)nc1 [Example 111, (R)-1-Methyl-pyrrolidine-2-carboxylic acid [(S)-1-[(6-amino-pyridin-3-ylmethyl)-carbamoyl]-2-(2-trifluoromethyl-phenyl)-ethyl]-amide]
257 nM | CN1CCC[C@@H]1C(=O)N[C@@H](Cc1ccncc1)C(=O)NCc1ccc(N)nc1 [Example 112, (R)-1-Methyl-pyrrolidine-2-carboxylic acid {(S)-1-[(6-amino-pyridin-3-ylmethyl)-carbamoyl]-2-pyridin-4-yl-ethyl}-amide]
14.5 nM | CN1CCC[C@@H]1C(=O)N[C@@H](Cc1c[nH]c2ccccc12)C(=O)NCc1ccc(N)nc1 [Example 113, (R)-1-Methyl-pyrrolidine-2-carboxylic acid [(S)-1-[(6-amino-pyridin-3-ylmethyl)-carbamoyl]-2-(1H-indol-3-yl)-ethyl]-amide]
28.4 nM | CN1CCC[C@@H]1C(=O)N[C@@H](Cc1ccc2ccccc2n1)C(=O)NCc1ccc(N)nc1 [Example 114, (R)-1-Methyl-pyrrolidine-2-carboxylic acid {(S)-1-[(6-amino-pyridin-3-ylmethyl)-carbamoyl]-2-quinolin-2-yl-ethyl}-amide]

IC50 | Compound
19.5 nM | CN1CCC[C@@H]1C(=O)N[C@@H](CC1CCCCC1)C(=O)NCc1ccc(N)nc1 [Example 115, (R)-1-Methyl-pyrrolidine-2-carboxylic acid {(S)-1-[(6-amino-pyridin-3-ylmethyl)-carbamoyl]-2-cyclohexyl-ethyl}-amide]
16.1 nM | CN1CCC[C@H]1C(=O)N[C@@H](Cc1ccc(F)c(F)c1)C(=O)NCc1ccc(N)nc1 [Example 116, (S)-1-Methyl-pyrrolidine-2-carboxylic acid [(S)-1-[(6-amino-pyridin-3-ylmethyl)-carbamoyl]-2-(3,4-difluoro-phenyl)-ethyl]-amide]
0.45 nM | CC(C)N1CCC[C@@H]1C(=O)N[C@@H](Cc1ccc(Cl)c(Cl)c1)C(=O)NCc1ccc(N)nc1 [Example 117, (R)-1-Isopropyl-pyrrolidine-2-carboxylic acid [(S)-1-[(6-amino-pyridin-3-ylmethyl)-carbamoyl]-2-(3,4-dichloro-phenyl)-ethyl]-amide]
2.1 nM | CC(C)N1CCC[C@@H]1C(=O)N[C@@H](Cc1cccc2ccccc12)C(=O)NCc1ccc(N)nc1 [Example 118, (R)-1-Isopropyl-pyrrolidine-2-carboxylic acid {(S)-1-[(6-amino-pyridin-3-ylmethyl)-carbamoyl]-2-naphthalen-1-yl-ethyl}-amide]
1.8 nM | CC(C)N1CCC[C@@H]1C(=O)N[C@@H](Cc1ccc(F)cc1)C(=O)NCc1ccc(N)nc1 [Example 119, (R)-1-Isopropyl-pyrrolidine-2-carboxylic acid [(S)-1-[(6-amino-pyridin-3-ylmethyl)-carbamoyl]-2-(4-fluoro-phenyl)-ethyl]-amide]
1.6 nM | CC(C)N1CCC[C@@H]1C(=O)N[C@@H](Cc1cccc(Cl)c1)C(=O)NCc1ccc(N)nc1 [Example 120, (R)-1-Isopropyl-pyrrolidine-2-carboxylic acid [(S)-1-[(6-amino-pyridin-3-ylmethyl)-carbamoyl]-2-(3-chloro-phenyl)-ethyl]-amide]
11 nM | Cc1ccccc1C[C@H](NC(=O)[C@H]1CCCN1C(C)C)C(=O)NCc1ccc(N)nc1 [Example 121, (R)-1-Isopropyl-pyrrolidine-2-carboxylic acid {(S)-1-[(6-amino-pyridin-3-ylmethyl)-carbamoyl]-2-o-tolyl-ethyl}-amide]
1.8 nM | Cc1cccc(C[C@H](NC(=O)[C@H]2CCCN2C(C)C)C(=O)NCc2ccc(N)nc2)c1 [Example 122, (R)-1-Isopropyl-pyrrolidine-2-carboxylic acid {(S)-1-[(6-amino-pyridin-3-ylmethyl)-carbamoyl]-2-m-tolyl-ethyl}-amide]
1.4 nM | Cc1ccc(C[C@H](NC(=O)[C@H]2CCCN2C(C)C)C(=O)NCc2ccc(N)nc2)cc1 [Example 123, (R)-1-Isopropyl-pyrrolidine-2-carboxylic acid {(S)-1-[(6-amino-pyridin-3-ylmethyl)-carbamoyl]-2-p-tolyl-ethyl}-amide]
36.8 nM | COc1cccc(C[C@H](NC(=O)[C@H]2CCCN2C(C)C)C(=O)NCc2ccc(N)nc2)c1 [Example 124, (R)-1-Isopropyl-pyrrolidine-2-carboxylic acid [(S)-1-[(6-amino-pyridin-3-ylmethyl)-carbamoyl]-2-(3-methoxy-phenyl)-ethyl]-amide]
8.8 nM | CC(C)N1CCC[C@@H]1C(=O)N[C@@H](Cc1ccccc1F)C(=O)NCc1ccc(N)nc1 [Example 125, (R)-1-Isopropyl-pyrrolidine-2-carboxylic acid [(S)-1-[(6-amino-pyridin-3-ylmethyl)-carbamoyl]-2-(2-fluoro-phenyl)-ethyl]-amide]
9.3 nM | CC(C)N1CCC[C@@H]1C(=O)N[C@@H](Cc1ccccc1Cl)C(=O)NCc1ccc(N)nc1 [Example 126, (R)-1-Isopropyl-pyrrolidine-2-carboxylic acid [(S)-1-[(6-amino-pyridin-3-ylmethyl)-carbamoyl]-2-(2-chloro-phenyl)-ethyl]-amide]
0.9 nM | CC(C)N1CCC[C@@H]1C(=O)N[C@@H](Cc1ccc(Cl)cc1Cl)C(=O)NCc1ccc(N)nc1 [Example 127, (R)-1-Isopropyl-pyrrolidine-2-carboxylic acid [(S)-1-[(6-amino-pyridin-3-ylmethyl)-carbamoyl]-2-(2,4-dichloro-phenyl)-ethyl]-amide]
7.6 nM | CC(C)N1CCC[C@@H]1C(=O)N[C@@H](Cc1ccccc1C(F)(F)F)C(=O)NCc1ccc(N)nc1 [Example 128, (R)-1-Isopropyl-pyrrolidine-2-carboxylic acid [(S)-1-[(6-amino-pyridin-3-ylmethyl)-carbamoyl]-2-(2-trifluoromethyl-phenyl)-ethyl]-amide]
215 nM | CC(C)N1CCC[C@@H]1C(=O)N[C@@H](Cc1ccncc1)C(=O)NCc1ccc(N)nc1 [Example 129, (R)-1-Isopropyl-pyrrolidine-2-carboxylic acid {(S)-1-[(6-amino-pyridin-3-ylmethyl)-carbamoyl]-2-pyridin-4-yl-ethyl}-amide]

— patent US20100076015A1, “Aminopyridine Derivatives” (VANTIA LIMITED, priority 2008, published 2010)
